Measurements taken from US20260200947A1, “FUSED CYCLIC COMPOUNDS AND USE THEREOF” (Jacobio Pharmaceuticals Co., Ltd., priority 2022, published 2026).
Where two headings read alike, the source gives them in different places.

How the values were obtained:
[1] = molecular target: GDP-KRAS G12D (Homo sapiens, UniProt P01116, G12D); experiment: biochemical
[2] = molecular target: GDP-KRAS G12V (Homo sapiens, UniProt P01116, G12V); experiment: biochemical
[3] = molecular target: GppNp-KRAS G12D (Homo sapiens, UniProt P01116, G12D); experiment: biochemical
[4] = molecular target: GppNp-KRAS G12V (Homo sapiens, UniProt P01116, G12V); experiment: biochemical
[5] = tested on: AsPC-1 cells (K-Ras G12D)
Procedure: (§1) Each of cells in culture medium was plated in TC-treated 96-well plates at a density indicated in Table 4 and incubated in a cell incubator overnight. The next day, each of compounds was diluted in culture medium and added to the plates. After 6 days incubation in cell incubator, the cell viability was detected by CellTiter-Glo® Cell Viability Assay kit (Promega).

[6] = tested on: SW620 cells (K-Ras G12V)
Procedure: as §1

[7] = tested on: SW620 cells (K-Ras G12V); experiment: Phospho-ERK1/2(THR202/TYR204) HTRF assay, SW620; format: cell-based; conditions: Homo sapiens, SW-620, 2 hours incubation, read-out: pERK, IC50, SW620
Procedure: Each of cells in culture medium was seeded in 96-well plates at density indicated in Table 4 and put in a cell incubator to incubate overnight. The next day, the culture medium was removed and the compound diluted in assay medium was added in each well. […] 10 μL of cell lysates from the 96-well plates were transferred to a 384-well plate (Greiner) containing 2.5 μL/well HTRF® pre-mixed antibodies (Cisbio 64AERPEH). The plate was incubated 4 hours at 25° C. and read HTRF signals on Tecan Spark multimode microplate reader. The data were analyzed using a 4-parameter logistic model to calculate IC50 values.

Chain of GDP-KRAS G12V (P01116 1-169 isoform P01116-2 G12V): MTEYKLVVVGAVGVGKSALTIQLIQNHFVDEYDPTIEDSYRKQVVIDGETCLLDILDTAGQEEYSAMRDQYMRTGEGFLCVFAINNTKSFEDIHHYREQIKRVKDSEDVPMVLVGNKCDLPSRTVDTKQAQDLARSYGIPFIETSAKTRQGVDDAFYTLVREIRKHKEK
Chain of GppNp-KRAS G12V (P01116 1-169 isoform P01116-2 G12V): as above
Chain of GppNp-KRAS G12D (P01116 1-169 isoform P01116-2 G12D): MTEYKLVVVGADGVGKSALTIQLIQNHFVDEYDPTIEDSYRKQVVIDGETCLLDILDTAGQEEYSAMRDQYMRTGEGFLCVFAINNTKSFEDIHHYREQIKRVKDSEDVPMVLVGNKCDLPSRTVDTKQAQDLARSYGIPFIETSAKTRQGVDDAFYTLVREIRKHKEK
Chain of GDP-KRAS G12D (P01116 1-169 isoform P01116-2 G12D): as above

SMILES | IC50 [1] | IC50 [2] | IC50 [3] | IC50 [4] | IC50 [5] | IC50 [6] | IC50 [7]
C[C@H]1CCOC[C@H]2COc3c(Cl)c(-c4ccc(F)c5sc(N)c(C#N)c45)c(F)c4nc(OC[C@@]56CCCN5C[C@H](F)C6)nc(c34)N21 (atropisomer, axis not shown) [Compound 158A] | 0.996 nM | 0.939 nM | 10.8 nM | 4.93 nM |  |  | 
N#Cc1c(N)sc2c(F)ccc(-c3c(F)c4c5c(nc(OC[C@@]67CCCN6C[C@H](F)C7)nc5c3F)N3CCCOC[C@H]3CO4)c12 (single isomer, unassigned) [Compound 163A] | 301 nM | 423 nM | > 1000 nM | > 1000 nM |  |  | 
C#Cc1c(F)ccc2cc(N)cc(-c3nc4c5c(nc(OC[C@@]67CCCN6C[C@H](F)C7)nc5c3F)N3CC(C)COC[C@H]3CO4)c12 (some centres unmarked) [Compound 16] | 29.7 nM | 15.2 nM | 651 nM | > 1000 nM |  |  | 
C#Cc1c(F)ccc2cc(N)cc(-c3nc4c5c(nc(OC[C@@H]6CCN6CC(F)F)nc5c3F)N3CCCOC[C@H]3CO4)c12 [Compound 23] | 30 nM | 36.2 nM |  |  |  |  | 
C#Cc1c(F)ccc2cc(N)cc(-c3nc4c5c(nc(OC[C@@]67CCCN6C[C@H](F)C7)nc5c3F)N3CCCC(F)(F)C3CO4)c12 (some centres unmarked) [Compound 28] | 13 nM | 18.1 nM |  |  |  |  | 
C#Cc1c(F)ccc2cc(N)cc(-c3nc4c5c(nc(OC[C@@]67CCCN6C[C@H](F)C7)nc5c3F)N3CC(F)COC[C@@H]3CO4)c12 (some centres unmarked) [Compound 29] |  |  |  |  | 620 nM | 158 nM | 
C#Cc1c(F)ccc2cc(N)cc(-c3nc4c5c(nc(OC[C@@]67CCCN6C[C@H](F)C7)nc5c3F)N3CC(C)(O)CC[C@H]3CO4)c12 (some centres unmarked) [Compound 30] |  |  |  |  |  | 436 nM | 
C#Cc1c(F)ccc2cc(N)cc(-c3nc4c5c(nc(OC[C@@]67CCCN6C[C@H](F)C7)nc5c3F)N3[C@H](C)CCOC[C@H]3N4C)c12 [Compound 41] | 5.51 nM | 4.31 nM | 376 nM | > 1000 nM | 1140 nM | 40.1 nM | 
C#Cc1c(F)ccc2cc(N)cc(-c3nc4c5c(nc(OC[C@@]67CCCN6C[C@H](F)C7)nc5c3F)N3C(C(F)F)CCOCC3N4C)c12 (some centres unmarked) [Compound 52] | 2.83 nM | 1.34 nM | 146 nM | 363 nM |  |  | 
C#Cc1c(F)ccc2cc(N)cc(-c3nc4c5c(nc(OC[C@@]67CCCN6C[C@H](F)C7)nc5c3F)N3CCC=CC[C@H]3C4=C)c12 [Compound 67] | 1.72 nM | 1.36 nM | 59.9 nM | 113 nM | 136 nM | 16.2 nM | 8.74 nM
C#Cc1c(F)ccc2cc(N)cc(-c3nc4c5c(nc(OC[C@@]67CCCN6C[C@H](F)C7)nc5c3F)N3CCCOCC3N4C3CC3)c12 (some centres unmarked) [Compound 68] | 2.18 nM | 3.49 nM | 187 nM | 356 nM | 169 nM | 39.3 nM | 5.95 nM
[2H]C1([2H])OCCCN2c3nc(OC[C@@]45CCCN4C[C@H](F)C5)nc4c(F)c(-c5cc(N)cc6ccc(F)c(C#C)c56)nc(c34)N(C)C21 (some centres unmarked) [Compound 76] | 2.84 nM | 1.14 nM | 96.3 nM | 118 nM | 76 nM | 7.86 nM | 2.08 nM
C#Cc1c(F)ccc2cc(N)cc(-c3nc4c5c(nc(OC[C@@]67CCCN6C[C@H](F)C7)nc5c3F)N3CCC(F)CCC3N4C)c12 (some centres unmarked) [Compound 77] | 7.63 nM | 15.1 nM | 177 nM |  | 103 nM |  | 
C#Cc1c(F)ccc2cc(N)cc(-c3nc4c5c(nc(OC[C@@]67CCCN6C[C@H](F)C7)nc5c3F)N3CCCOCC3N4C(C)=O)c12 (some centres unmarked) [Compound 78] | 21.3 nM | 10 nM | > 1000 nM | > 1000 nM |  |  | 
C#Cc1c(F)ccc2cc(N)cc(-c3nc4c5c(nc(OC[C@@]67CCCN6C[C@H](F)C7)nc5c3F)N3CCCC=C(F)C3N4C)c12 (some centres unmarked) [Compound 80] | 10.6 nM | 12.2 nM | 314 nM | > 1000 nM |  |  | 
C#Cc1c(F)ccc2cc(N)cc(-c3nc4c5c(nc(OC[C@@]67CCCN6C[C@H](F)C7)nc5c3F)N3CCC(F)(F)CCC3N4C)c12 (some centres unmarked) [Compound 81] | 78.8 nM | 89.3 nM | > 1000 nM | > 1000 nM |  |  | 
C#Cc1c(F)ccc2cc(N)cc(-c3nc4c5c(nc(OC[C@@]67CCCN6C[C@H](F)C7)nc5c3F)N3CCCC/C(=C/F)C3N4C)c12 (some centres unmarked) [Compound 86] | 10.3 nM | 9.94 nM | > 1000 nM | > 1000 nM |  | 412 nM | 

SMILES | IC50 [1] | IC50 [2] | IC50 [3] | IC50 [4] | IC50 [5] | IC50 [6] | IC50 [7]
C#Cc1c(F)ccc2cc(N)cc(-c3nc4c5c(nc(OC[C@@]67CCCN6C[C@H](F)C7)nc5c3F)N3CCCC(O)CC3N4C)c12 (some centres unmarked) [Compound 87] | 33.3 nM | 29.9 nM | 882 nM | > 1000 nM |  |  | 
C#Cc1c(F)ccc2cc(N)cc(-c3nc4c5c(nc(OC[C@@]67CCCN6C[C@H](F)C7)nc5c3F)N3[C@@H](C)CCOC[C@H]3N4C3CC3)c12 [Compound 90] | 3.72 nM | 1.28 nM | 190 nM | 898 nM | 415 nM | 40.6 nM | 9.38 nM
C#Cc1c(F)ccc2cc(N)cc(-c3nc4c5c(nc(OC[C@@]67CCCN6C[C@H](F)C7)nc5c3F)N3[C@@H](CC)CCOC[C@H]3N4C)c12 [Compound 94] | 1.17 nM | 0.576 nM | 224 nM | 204 nM | 82.5 nM | 6.09 nM | 1.71 nM
C#Cc1c(F)ccc2cc(N)cc(-c3nc4c5c(nc(OC[C@@]67CCCN6C[C@H](F)C7)nc5c3F)N3C(C5CCC5)CCOCC3N4C)c12 (some centres unmarked) [Compound 105] | 44.1 nM | 19.5 nM | > 1000 nM | > 1000 nM |  |  | 
C#Cc1c(F)ccc2cc(N)cc(-c3nc4c5c(nc(OC[C@@]67CCCN6C[C@H](F)C7)nc5n5c(n4C)=CC=CCC5)c3F)c12 [Compound 112] | 33.4 nM | 21.6 nM | 921 nM | > 1000 nM |  |  | 
C#Cc1c(F)ccc2cc(N)cc(-c3nc4c5c(nc(OC[C@@]67CCCN6C[C@H](F)C7)nc5c3F)N3CCOCCC3N4C)c12 (some centres unmarked) [Compound 114] | 3.73 nM | 2.08 nM | 295 nM | 747 nM | 586 nM | 45.8 nM | 28.3 nM
C#Cc1c(F)ccc2cc(N)cc(-c3nc4c5c(nc(OC[C@@]67CCCN6C[C@H](F)C7)nc5c3F)N3C(COCCN3C)N4C)c12 (some centres unmarked) [Compound 118] | 11.2 nM | 11.7 nM |  | > 1000 nM |  |  | 
C[C@H]1CCOC[C@H]2N(C)c3nc(-c4cc(O)cc5ccc(F)c(Cl)c45)c(F)c4nc(OC[C@@]56CCCN5C[C@H](F)C6)nc(c34)N12 [Compound 119] | 1.53 nM | 0.815 nM | 71.1 nM | 233 nM | 52.1 nM | 14.7 nM | 13 nM
CCc1c(F)ccc2cc(N)cc(-c3nc4c5c(nc(OC[C@@]67CCCN6C[C@H](F)C7)nc5c3F)N3[C@@H](C)CCOC[C@H]3N4C)c12 [Compound 127] | 3.87 nM | 2.13 nM | 299 nM | > 1000 nM | 173 nM | 62.6 nM | 21.9 nM
C#Cc1c(F)ccc2cc(N)cc(-c3nc4c5c(nc(OC[C@@]67CCCN6C[C@H](F)C7)nc5c3F)N3CC(F)CC[C@H](F)[C@H]3N4C)c12 (some centres unmarked) [Compound 134] | 1.75 nM | 1.44 nM | 21.6 nM | 50.4 nM |  |  | 
C#Cc1c(F)ccc2cc(N)cc(-c3nc4c5c(nc(OC[C@@]67CCCN6C[C@H](F)C7)nc5c3F)N3C/C(=N\OC)COC[C@H]3N4C)c12 [Compound 137] | 1.86 nM | 1.84 nM | 210 nM | 486 nM |  |  | 
N#Cc1c(N)sc2c(F)ccc(-c3cc4c5c(nc(OC[C@@]67CCCN6C[C@H](F)C7)nc5c3F)N3CCCCC[C@H]3CO4)c12 [Compound 139] | 19.6 nM | 21.6 nM |  | > 1000 nM |  |  | 
C#Cc1c(F)ccc2cc(N)cc(-c3nc4c5c(nc(OCC6(CN7CCOCC7)CCC6)nc5c3F)N3CCCOCC3N4C)c12 (centres unmarked) [Compound 140] | 13.8 nM | 7.11 nM | > 1000 nM | > 1000 nM |  |  | 
C#Cc1c(F)ccc2cc(N)cc(-c3nc4c5c(nc(OCC(CN6CCOCC6)OC)nc5c3F)N3CCCOCC3N4C)c12 (centres unmarked) [Compound 142] | 233 nM | 65.4 nM | > 1000 nM | > 1000 nM |  |  | 
C#Cc1c(F)ccc2cc(N)cc(-c3nc4c5c(nc(OC[C@@]67CCCN6C[C@H](F)C7)nc5c3F)N3C(CCCC[C@@H]3C(C)O)N4C)c12 (some centres unmarked) [Compound 143] | 2.51 nM | 2.94 nM | 246 nM | 631 nM |  |  | 
C#Cc1c(F)ccc2cc(N)cc(-c3nc4c5c(nc(OC[C@@]67CCCN6C[C@H](F)C7)nc5c3F)N3C/C(=N\OC)COC[C@@H]3N4C)c12 [Compound 148] | 287 nM | 403 nM | > 1000 nM | > 1000 nM |  |  | 
C#Cc1c(F)ccc2cc(N)cc(-c3nc4c5c(nc(OC[C@@]67CCCN6C[C@H](F)C7)nc5c3F)N3CCCC3N4C)c12 (some centres unmarked) [Compound 153] | 83.4 nM | 13.7 nM | > 1000 nM | > 1000 nM |  |  | 
